Measured values published in patent US6022873A, “Metalloproteinase inhibitors” (British Biotech Pharmaceuticals Limited, priority 1996, dated 2000).

Molecular target: T1, human fibroblast collagenase (Homo sapiens, UniProt P03956)
T1 sequence (P03956 100-469): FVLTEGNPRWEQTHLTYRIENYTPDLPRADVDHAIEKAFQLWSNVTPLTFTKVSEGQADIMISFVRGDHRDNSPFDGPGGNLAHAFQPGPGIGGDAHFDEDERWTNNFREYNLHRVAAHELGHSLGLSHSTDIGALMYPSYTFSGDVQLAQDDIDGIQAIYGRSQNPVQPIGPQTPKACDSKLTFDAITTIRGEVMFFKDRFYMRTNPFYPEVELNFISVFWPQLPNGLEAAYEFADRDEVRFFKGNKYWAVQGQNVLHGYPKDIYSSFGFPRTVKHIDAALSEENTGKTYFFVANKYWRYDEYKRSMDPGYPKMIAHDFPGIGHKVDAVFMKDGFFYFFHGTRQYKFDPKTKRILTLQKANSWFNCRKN
Assay: Human fibroblast collagenase inhibition assay (14C-acetylated collagen hydrolysis, Cawston and Barrett)
Assay type: biochemical
Conditions: 37° C., 16 hours, acetylated 14C collagen, 25 mM Hepes pH 7.5; read-out: inhibitor concentration effecting 50% inhibition of the collagenase activity (IC50)
Procedure: The potency of compounds of the present invention as inhibitors of human fibroblast collagenase may be determined by the procedure of Cawston and Barrett, (Anal. Biochem., 99, 340-345, 1979), hereby incorporated by reference, whereby a 1 mM solution of the compound being tested, or a dilution thereof, was incubated at 37° C. for 16 hours with collagen and human fibroblast collagenase (buffered with 25 mM Hepes, pH 7.5 containing 5 mM CaCl2, 0.05% Brij 35 and 0.02% NaN3). The collagen was acetylated ^14 C collagen prepared by the method of Cawston and Murphy, (Methods in Enzymology, 80, 711, 1981), hereby incorporated by reference. The samples were centrifuged to sediment undigested collagen, and an aliquot of the radioactive supernatant removed for assay on a scintillation counter as a measure of hydrolysis.

Compound `COc1ccc(S(=O)(=O)NCC[C@H](C(=O)NO)[C@@H](CC(C)C)C(=O)N2CCCCC2)cc1` [Example 2, 2S-[(4-Methoxybenzenesulfonyl-amino)-ethyl]-5-methyl-3R-(piperidine-1-carbonyl)-hexanoic acid hydroxyamide] has an IC50 of about 50 nM.
